Source: ChEMBL document CHEMBL4622859, “Discovery of stereospecific cytotoxicity of (8R,8'R)-trans-arctigenin against insect cells and structure-activity relationship on aromatic ring” (Bioorg Med Chem Lett, 2020)
Active and inactive are the calls of the source. The calls are words filed in the database; no cut-off is given here.

Legend:
[1] = Cytotoxicity against Spodoptera frugiperda Sf9 cells assessed as reduction in cell viability; type: cell-based
[2] = Cytotoxicity against Aedes albopictus NIAS-AeAl-2 cells assessed as reduction in cell viability; type: functional, cell-based
[3] = Effect on 28s ribosomal RNA expression in Spodoptera frugiperda Sf9 cells; type: functional
Sf9 = experiment: Induction of DNA degradation in Spodoptera frugiperda Sf9 cells by DNA ladder assay; type: functional, cell-based
HL-60 = experiment: Cytotoxicity against human HL60 cells assessed as reduction in cell viability; type: functional, cell-based

| SMILES | IC50 [1] [µM] | further results |
| --- | --- | --- |
| COc1ccc(C[C@H]2COC(=O)[C@@H]2Cc2ccccc2)cc1OC | 19 | – |
| COc1ccc(C[C@H]2COC(=O)[C@@H]2Cc2ccc(Cl)c(Cl)c2)cc1OC | 25 | – |
| COc1ccc(C[C@H]2COC(=S)[C@@H]2Cc2cc(F)c(F)c(F)c2)cc1OC | 22 | IC50 [2]: 15 µM |
| COc1ccc(C[C@H]2COC(=O)[C@@H]2Cc2cccc(C)c2)cc1OC | 12 | – |
| COc1ccc(C[C@H]2COC(=O)[C@@H]2Cc2cc(F)c(F)c(F)c2)cc1OC | 44 | – |
| COc1ccc(C[C@H]2COC(=O)[C@@H]2Cc2ccccc2C)cc1OC | 28 | – |
| COc1ccc(C[C@H]2COC(=O)[C@@H]2Cc2ccc(OC)c(OC)c2)cc1OC | 15 | – |
| COc1ccc(C[C@H]2COC(=O)[C@@H]2Cc2ccc(C(C)(C)C)cc2)cc1OC | 17 | – |
| COc1ccc(C[C@@H]2COC(=O)[C@H]2Cc2ccc(O)cc2)cc1OC | 29 | – |
| O=C1OC[C@H](Cc2ccccc2Cl)[C@H]1Cc1ccc(I)cc1 | 21 | – |
| O=C1OC[C@H](Cc2cccc(O)c2)[C@H]1Cc1ccc(I)cc1 | 18 | – |
| Cc1ccccc1C[C@H]1COC(=O)[C@@H]1Cc1ccc(I)cc1 | 21 | – |
| COc1ccc(C[C@H]2COC(=O)[C@@H]2Cc2ccccc2Cl)cc1OC | 24 | – |
| COc1cc(C[C@H]2C(=O)OC[C@@H]2Cc2ccc(OC)c(OC)c2)ccc1O [ARCTIGENIN] | 6.7 | Activity [3]: Active; Activity (Sf9): inactive; IC50 [2]: 0.73 µM; IC50 (HL-60): 13 µM |
| COc1ccc(C[C@@H]2COC(=O)[C@H]2Cc2ccc(I)cc2)cc1OC | 25 | – |
| O=C1OC[C@H](Cc2ccccc2)[C@H]1Cc1ccc(I)cc1 | 24 | – |
| COc1ccc(C[C@H]2COC(=O)[C@@H]2Cc2ccccc2I)cc1OC | 18 | – |
| COc1ccc(C[C@H]2COC(=O)[C@@H]2Cc2ccc3c(c2)OCCO3)cc1OC | 15 | – |
| O=C1OC[C@H](Cc2ccc(F)cc2)[C@H]1Cc1ccc(I)cc1 | 22 | – |
| COc1ccc(C[C@H]2COC(=O)[C@@H]2Cc2ccc(C(F)(F)F)cc2)cc1OC | 20 | IC50 [2]: 10 µM |
| O=C1OC[C@H](Cc2ccc(C(F)(F)F)cc2)[C@H]1Cc1ccc(I)cc1 | 15 | – |
| COc1ccc(C[C@H]2COC(=S)[C@@H]2Cc2ccc(I)cc2)cc1OC | 4.7 | IC50 [2]: 2.4 µM |
| COc1ccc(C[C@H]2COC(=O)[C@@H]2Cc2cccc3c2OCO3)cc1OC | 46 | – |
| COc1ccc(C[C@H]2COC(=O)[C@@H]2Cc2ccc(O)cc2)cc1OC | 9.9 | IC50 [2]: 1 µM |
| O=C1OC[C@H](Cc2cccc(C(F)(F)F)c2)[C@H]1Cc1ccc(I)cc1 | 19 | – |

| SMILES | IC50 [1] [µM] | further results |
| --- | --- | --- |
| COc1ccc(C[C@H]2COC(=O)[C@@H]2Cc2ccc(Br)cc2)cc1OC | 9.1 | – |
| COc1ccc(C[C@H]2COC(=O)[C@@H]2Cc2ccc3c(c2)OCO3)cc1OC [(-)-KUSUNOKININ] | 8.2 | IC50 [2]: 2.7 µM |
| COc1ccc(C[C@H]2COC(=O)[C@@H]2Cc2ccc(F)c(F)c2)cc1OC | 64 | IC50 [2]: 13 µM |
| O=C1OC[C@H](Cc2ccc(Cl)cc2)[C@H]1Cc1ccc(I)cc1 | 18 | – |
| COc1ccc(C[C@H]2C(=O)OC[C@@H]2Cc2ccc(OC)c(OC)c2)cc1 | 11 | IC50 [2]: 4.3 µM |
| COc1ccc(C[C@H]2COC(=O)[C@@H]2Cc2ccc(O)c(C)c2)cc1OC | 11 | – |
| O=C1OC[C@H](Cc2ccc3c(c2)OCCO3)[C@H]1Cc1ccc(I)cc1 | 10 | – |
| COc1cccc(C[C@H]2COC(=O)[C@@H]2Cc2ccc(I)cc2)c1 | 15 | – |
| COc1ccc(C[C@H]2COC(=O)[C@@H]2Cc2ccccc2C(F)(F)F)cc1OC | 25 | – |
| COc1ccc(C[C@H]2COC(=O)[C@@H]2Cc2ccc(C)cc2)cc1OC | 11 | IC50 [2]: 3.5 µM |
| O=C1OC[C@H](Cc2ccc(O)cc2)[C@H]1Cc1ccc(I)cc1 | 21 | – |
| O=C1OC[C@H](Cc2ccccc2C(F)(F)F)[C@H]1Cc1ccc(I)cc1 | 24 | – |
| COc1ccc(C[C@H]2COC(=O)[C@@H]2Cc2cccc(F)c2)cc1OC | 23 | – |
| COc1ccc(C[C@@H]2COC(=O)[C@H]2Cc2ccc(C)cc2)cc1OC | 42 | – |
| COc1ccccc1C[C@H]1C(=O)OC[C@@H]1Cc1ccc(OC)c(OC)c1 | 24 | – |
| O=C1OC[C@H](Cc2cccc(Cl)c2)[C@H]1Cc1ccc(I)cc1 | 27 | – |
| COc1ccc(C[C@H]2C(=O)OC[C@@H]2Cc2ccc(OC)c(OC)c2)cc1O | 19 | – |
| COc1cc(C[C@H]2C(=O)OC[C@H]2Cc2ccc(OC)c(OC)c2)ccc1O | > 100 | IC50 [2]: 57 µM; IC50 (HL-60): 13 µM |
| COc1ccc(C[C@H]2COC(=O)[C@@H]2Cc2ccc(O)c(O)c2)cc1OC | 10 | – |
| COc1cc(C[C@H]2COC(=O)[C@@H]2Cc2ccc(I)cc2)ccc1O | 19 | – |
| COc1ccc(C[C@@H]2COC(=O)[C@H]2Cc2ccc(Cl)cc2)cc1OC | 40 | – |
| COc1ccccc1C[C@H]1COC(=O)[C@@H]1Cc1ccc(I)cc1 | 22 | – |
| COc1ccc(C[C@H]2COC(=O)[C@@H]2Cc2ccccc2F)cc1OC | 43 | – |
| COc1ccc(C[C@H]2COC(=O)[C@@H]2Cc2ccc(I)cc2)cc1 | 21 | – |
| COc1ccc(C[C@H]2COC(=S)[C@@H]2Cc2ccc3c(c2)OCO3)cc1OC | 7.2 | – |

| SMILES | IC50 [1] [µM] | further results |
| --- | --- | --- |
| COc1ccc(C[C@H]2COC(=O)[C@@H]2Cc2ccc(I)cc2)cc1OC | 6.3 | IC50 [2]: 2.9 µM |
| COc1ccc(C[C@H]2COC(=S)[C@@H]2Cc2ccccc2C)cc1OC | 19 | – |
| COc1ccc(C[C@H]2COC(=O)[C@@H]2Cc2cccc(C(F)(F)F)c2)cc1OC | 19 | – |
| COc1cccc(C[C@H]2C(=O)OC[C@@H]2Cc2ccc(OC)c(OC)c2)c1 | 17 | – |
| O=C1OC[C@H](Cc2ccccc2O)[C@H]1Cc1ccc(I)cc1 | 18 | – |
| COc1ccc(C[C@H]2COC(=O)[C@@H]2Cc2cc(OC)c(O)c(OC)c2)cc1OC | 9.1 | – |
| O=C1OC[C@H](Cc2cccc(F)c2)[C@H]1Cc1ccc(I)cc1 | 22 | – |
| Cc1cccc(C[C@H]2COC(=O)[C@@H]2Cc2ccc(I)cc2)c1 | 24 | – |
| COc1ccc(C[C@H]2COC(=O)[C@@H]2Cc2cccc(Cl)c2)cc1OC | 17 | – |
| COc1ccc(C[C@H]2COC(=O)[C@@H]2Cc2ccccc2O)cc1OC | 54 | IC50 [2]: 17 µM |
| Cc1ccc(C[C@H]2COC(=O)[C@@H]2Cc2ccc(I)cc2)cc1 | 20 | – |
| COc1ccc(C[C@H]2COC(=O)[C@@H]2Cc2ccc(C)c(C)c2)cc1OC | 9.3 | – |
| COc1ccc(C[C@H]2COC(=O)[C@@H]2Cc2ccc(I)cc2)cc1O | 21 | – |
| O=C1OC[C@H](Cc2ccc3c(c2)OCO3)[C@H]1Cc1ccc(I)cc1 | 12 | – |
| COc1ccc(C[C@@H]2COC(=O)[C@H]2Cc2ccc3c(c2)OCO3)cc1OC | 41 | – |
| CCc1ccc(C[C@H]2C(=O)OC[C@@H]2Cc2ccc(OC)c(OC)c2)cc1 | 17 | – |
| COc1ccc(C[C@H]2COC(=O)[C@@H]2Cc2cccc(I)c2)cc1OC | 5.4 | – |
| COc1cc(C[C@@H]2C(=O)OC[C@H]2Cc2ccc(OC)c(OC)c2)ccc1O | 80 | Activity [3]: Active; IC50 [2]: 28 µM; IC50 (HL-60): 23 µM |
| COc1cc(C[C@@H]2C(=O)OC[C@@H]2Cc2ccc(OC)c(OC)c2)ccc1O | 13 | IC50 [2]: 6.3 µM; IC50 (HL-60): 8.5 µM |
| COc1ccc(C[C@H]2COC(=O)[C@@H]2Cc2ccc(Cl)cc2)cc1OC | 10 | IC50 [2]: 2.3 µM |
| COc1ccc(C[C@H]2COC(=O)[C@@H]2Cc2ccc(F)cc2)cc1OC | 28 | IC50 [2]: 8.3 µM |
| COc1ccc(C[C@H]2COC(=O)[C@@H]2Cc2cccc(O)c2)cc1OC | 22 | – |
| O=C1OC[C@H](Cc2ccccc2F)[C@H]1Cc1ccc(I)cc1 | 20 | – |
| COc1ccc(C[C@@H]2C(=O)OC[C@H]2Cc2ccc(OC)c(OC)c2)cc1 | 47 | – |
